Like-named read-outs stand apart in the source and are kept apart here. Bridge positions count the residues as written; N and C are the ends. Square brackets hold non-standard residues; d marks the D form. Peptide text beside a SMILES is read from it. Trp(1-Me) = Cn1cc(C[C@H](N)C(=O)O)c2ccccc21; NMeI = CC[C@H](C)[C@H](NC)C(=O)O; Sar = CNCC(=O)O
Target: T1, C3b (Homo sapiens, UniProt P01024)
T1 construct: the α’NT, MG6^α−8, anchor, and C-terminal complement (CTC) domains of the α-chain that are all shared between C3c and C3b; purchased Complement Technology (Tyler, TX, USA)
Test: SPR kinetic binding studies on immobilized C3b
Method: All compstatin analogues were characterized concerning affinity and kinetic profiles by surface plasmon resonance (SPR) using a Biacore T200 instrument (Cytiva, Piscataway, USA). Experiments were run at 25 °C in HBST buffer (10 mM HEPES, 150 mM NaCl, 0.05% Tween-20, pH 7.4). C3b was immobilized on a carboxymethyl dextran hydrogel chip (CMD200; XanTec, Düsseldorf, Germany) using standard amine coupling in sodium acetate buffer pH 4.5 at a flow rate of 10 µl/min. Immobilization densities of 8000 and 4000 resonance units (RU) were achieved on separate flow cells. A reference flow cell was activated with the same method (NHS/EDC). All active sites were inactivated and blocked with ethanolamine. A single cycle approach at a flow rate of 30 µl/min was used for kinetic analysis by injecting five increasing concentrations of each compound (0.5–40 nM) consecutively without regeneration in-between injections. Individual injections within a cycle were 120 s long with a 60 sec dissociation phase between injections. After the highest concentration of each derivative, a dissociation period of 6,000–14,400 sec was added to ensure complete dissociation in absence of suitable regeneration method. […] Signals from the reference cell from an ensemble of buffer blank injections were subtracted to correct for buffer effects and injection artefacts. Kinetic data was processed with the Biacore T200 Software (version 3.1; Cytiva) using a single-cycle evaluation setup by global fitting each data set to a 1:1 Langmuir binding model. Association and dissociation rate constants (ka and kd, respectively) were fitted, and the equilibration constant KD was calculated based on the following equation: KD = kd/ka. Each assay was performed at least twice and in duplicate injections.

[1] = Table 1, amine-reactive immobilized C3b, 25 °C, average±SD of three independent SPR experiments, read-out: KD
[2] = pH 7.4, read-out: ka, Dataset 1
[3] = pH 7.4, read-out: ka, Dataset 3
[4] = source data of Table 1, single SPR dataset 1, read-out: KD, Dataset 1
[5] = source data of Table 1, single SPR dataset 2, read-out: KD, Dataset 2
[6] = source data of Table 1, single SPR dataset 3, read-out: KD, Dataset 3
[7] = pH 7.4, read-out: ka, Dataset 2

T1 sequence (P01024 23-667 limits assumed): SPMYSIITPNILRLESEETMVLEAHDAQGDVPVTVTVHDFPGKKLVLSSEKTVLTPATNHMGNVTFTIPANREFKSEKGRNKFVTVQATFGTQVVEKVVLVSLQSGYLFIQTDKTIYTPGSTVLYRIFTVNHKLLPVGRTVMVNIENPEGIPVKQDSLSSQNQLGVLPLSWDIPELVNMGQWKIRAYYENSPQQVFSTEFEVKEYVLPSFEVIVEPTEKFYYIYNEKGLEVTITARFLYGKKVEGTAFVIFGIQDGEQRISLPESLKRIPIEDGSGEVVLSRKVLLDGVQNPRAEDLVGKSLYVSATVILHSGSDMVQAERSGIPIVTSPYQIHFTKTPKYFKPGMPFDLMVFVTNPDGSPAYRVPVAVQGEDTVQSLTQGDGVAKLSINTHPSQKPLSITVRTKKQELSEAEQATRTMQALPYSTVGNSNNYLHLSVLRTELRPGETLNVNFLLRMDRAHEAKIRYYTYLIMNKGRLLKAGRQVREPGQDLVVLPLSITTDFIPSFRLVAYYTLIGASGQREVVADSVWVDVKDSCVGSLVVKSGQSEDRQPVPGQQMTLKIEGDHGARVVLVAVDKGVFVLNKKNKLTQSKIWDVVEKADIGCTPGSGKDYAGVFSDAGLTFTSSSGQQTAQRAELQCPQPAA
T1 sequence (P01024 749-1663 limits assumed): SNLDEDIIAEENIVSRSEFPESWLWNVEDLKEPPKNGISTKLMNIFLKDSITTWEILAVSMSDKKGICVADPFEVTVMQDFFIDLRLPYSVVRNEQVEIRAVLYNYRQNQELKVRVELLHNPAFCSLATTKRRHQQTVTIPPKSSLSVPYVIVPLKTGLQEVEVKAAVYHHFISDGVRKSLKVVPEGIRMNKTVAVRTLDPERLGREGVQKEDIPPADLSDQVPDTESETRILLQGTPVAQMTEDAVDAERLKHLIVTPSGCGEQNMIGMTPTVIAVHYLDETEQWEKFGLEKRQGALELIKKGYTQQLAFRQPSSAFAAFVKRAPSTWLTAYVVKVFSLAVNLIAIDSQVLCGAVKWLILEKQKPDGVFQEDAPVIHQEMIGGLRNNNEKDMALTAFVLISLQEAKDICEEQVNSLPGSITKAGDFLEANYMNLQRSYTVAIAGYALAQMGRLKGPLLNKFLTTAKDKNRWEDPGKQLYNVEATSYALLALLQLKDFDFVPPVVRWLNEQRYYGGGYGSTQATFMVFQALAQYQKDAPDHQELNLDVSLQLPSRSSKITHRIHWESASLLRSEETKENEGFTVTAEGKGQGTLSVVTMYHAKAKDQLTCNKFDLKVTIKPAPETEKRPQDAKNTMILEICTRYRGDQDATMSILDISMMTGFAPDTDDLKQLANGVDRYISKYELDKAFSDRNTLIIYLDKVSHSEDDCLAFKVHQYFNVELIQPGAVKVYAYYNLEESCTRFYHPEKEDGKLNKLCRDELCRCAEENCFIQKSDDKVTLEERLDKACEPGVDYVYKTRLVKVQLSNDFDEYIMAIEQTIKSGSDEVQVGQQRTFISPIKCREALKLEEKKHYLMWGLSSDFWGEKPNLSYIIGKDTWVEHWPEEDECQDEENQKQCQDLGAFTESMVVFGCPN

SMILES | Kd [1] [nM] | kon (pH 7.4, read-out: ka) [M⁻¹ s⁻¹] | kon [2] [M⁻¹ s⁻¹] | kon [3] [M⁻¹ s⁻¹] | Kd [4] [nM] | Kd [5] [nM] | Kd [6] [nM] | kd (Table 1, amine-reactive immobilized C3b, 25 °C, average±SD of three independent SPR experiments) | kon [7] [M⁻¹ s⁻¹] | kd, Dataset 1 (source data of Table 1, single SPR dataset 1) | kd, Dataset 2 (source data of Table 1, single SPR dataset 2) | kd, Dataset 3 (source data of Table 1, single SPR dataset 3)
CC[C@H](C)[C@H](NC(=O)[C@H](C)N)C(=O)N[C@H]1CSSC[C@@H](C(=O)N(C)[C@H](C(N)=O)[C@@H](C)CC)NC(=O)[C@H](CCCNC(=N)N)NC(=O)[C@H](Cc2c[nH]cn2)NC(=O)[C@H](C)NC(=O)CN(C)C(=O)[C@H](Cc2c[nH]c3ccccc23)NC(=O)[C@H](CC(=O)O)NC(=O)[C@H](CCC(N)=O)NC(=O)[C@H](Cc2cn(C)c3ccccc23)NC(=O)[C@H](C(C)C)NC1=O [Cp40 y1A] (H-AICV[Trp(1-Me)]QDW[Sar]AHRC[NMeI]-NH2; disulfide 3-13) | 3.8 ± 0.5 | 400000 | 470000 | 290000 | 4.11 | 4.27 | 3.1 |  |  |  |  | 
CC[C@H](C)[C@H](NC(=O)[C@@H](C)N)C(=O)N[C@H]1CSSC[C@@H](C(=O)N(C)[C@H](C(N)=O)[C@@H](C)CC)NC(=O)[C@H](CCCNC(=N)N)NC(=O)[C@H](Cc2c[nH]cn2)NC(=O)[C@H](C)NC(=O)CN(C)C(=O)[C@H](Cc2c[nH]c3ccccc23)NC(=O)[C@H](CC(=O)O)NC(=O)[C@H](CCC(N)=O)NC(=O)[C@H](Cc2cn(C)c3ccccc23)NC(=O)[C@H](C(C)C)NC1=O [Cp40 y1a] | 2.9 ± 0.6 | 800000 ± 100000 | 840000 | 650000 | 2.19 | 2.99 | 3.63 | 2.3 ± 0.4 10^−3 s^−1 | 920000 | 1.85 10-3 s-1 | 2.77 10-3 s-1 | 2.36 10-3 s-1
CC[C@H](C)[C@H](NC(=O)[C@H](N)Cc1ccc(O)cc1)C(=O)N[C@H]1CSSC[C@@H](C(N)=O)NC(=O)[C@H](CCCNC(=N)N)NC(=O)[C@H](Cc2c[nH]cn2)NC(=O)[C@H](C)NC(=O)CN(C)C(=O)[C@H](Cc2c[nH]c3ccccc23)NC(=O)[C@H](CC(=O)O)NC(=O)[C@H](CCC(N)=O)NC(=O)[C@H](Cc2cn(C)c3ccccc23)NC(=O)[C@H](C(C)C)NC1=O [Cp40 ΔmI14] (H-[dY]ICV[Trp(1-Me)]QDW[Sar]AHRC-NH2; disulfide 3-13) |  | 1.5e+06 ± 200000 | 1.41e+06 | 1.8e+06 |  |  |  |  | 1.28e+06 |  |  | 

From article PMC9488889, “Insight into mode-of-action and structural determinants of the compstatin family of clinical complement inhibitors” (Nature Communications, 2022)
